According to patent US4470840A, “1-Triacontanol plant growth stimulator formulations” (Biochemical Research Corporation, priority 1981, dated 1984):

Legend:
[1] = tested on: Tomatoes (cv. Ponderosa Red Beefsteak, Red Cherry, Rutgers VF); experiment: Field trial: marketable yield and seed size; type: in vivo; settings: for Percent increases (size of seeds) / Wt. of treated seed: 100 seeds; for Percent increases (size of seeds) / Wt. of treated seed / Fresh wt. (marketable yield) / Percent increases (marketable yield): 1-triacontanol 0.25 mg/liter; for Wt. of treated seed: control seed 0.32; for Fresh wt. (marketable yield) / Percent increases (marketable yield): pH 9 to 10
Protocol: (§1) Field trials were conducted in Northern Virginia on plots that were replicated at least five items. Plots consisted of single rows of plants in blocks of three or more plots, with treatments being assigned randomly within each block.
Plants were fertilized with the fertilizers described in Table 1, and sprayed at air temperatures listed in the same Table. Spraying was usually avoided under windy conditions to avoid drift. In the examples set forth herein, data were treated in a similar manner to those found in the greenhouse trials, with analysis of variance performed for each trial, and the use of a suitable statistical method for the analysis of results, preferably Duncan's multiple range test.

[2] = tested on: Pea Seedlings (cv. Dark Skin); experiment: Greenhouse trial: dry weight of seedlings; type: in vivo, peas; settings: 1-triacontanol 0.1 mg/liter; for Dry wt.: sum of four plants
Protocol: (§2) In general, greenhouse trials were conducted as follows: eight to twelve seeds were sown per pot in Peat-Lite® Mix and received an average of 100 ml of water per day. After plants had the third true leaf (average), the various formulations were applied to the leaves as a fine mist at air temperatures listed in Table 1. Temperatures above 20° C., preferably 25°-30° C., are preferred.
(§3) The 1-triacontanol formulation most generally used consisted of a concentrate containing 5 mg of 1-triacontanol dissolved in 1 liter of acetone, with 20 ml of the concentrate being further dissolved to 1 liter with water having a pH between 8 and 10, with over a pH of 11 also being effective. The pH was adjusted with aqueous NaOH and the concentrate added just prior to spraying.
(§4) When other plant growth substances were added to the formulations, these were added either to the concentrate in the polar organic solvent or alternatively in the aqueous solution, depending on the solubility of the plant growth substance. All metal salts were added to the water used to spray the 1-triacontanol formulations. After spraying, preferably about four to nine days or more, plants were harvested with roots, and fresh weights were obtained. Plants were then dried in an oven, preferably at a temperature below 100° C., until constant weight was obtained, and dry weight values were obtained for each plot. Subtraction of the dry weights from the fresh weights gave the water uptake weights (water content) of each plot. The weights of the above mentioned seedlings were compared to the control weights to obtain the percent increases.
(§5) It is particularly advantageous to arrange each of the potted plants in size range categories corresponding to the number of replications used. For example, if five replications are employed, plants are divided into five size categories, normally measured by the height of the plants. Treatments are then assigned randomly within each block (size category). This removes the variation due to plant size for statistical purposes, as is well practiced in the art. The resulting data is analyzed using any appropriate means, which may include the least significant difference method (L.S.D. method), Duncan's multiple range test, as used here (Biometrics, 11: 1 (1955)), or other means.

[3] = tested on: Cucumbers (cv. Straight Eight, Improved White Spine); experiment: Field trial: crop yield; type: in vivo; settings: for Increase (crop yield) / Fresh wt. (crop yield): cv. Improved White Spine, TRIACON-10, 1-triacontanol 0.25 mg/liter, pH 9.8
Protocol: as §1
Plants were fertilized with the fertilizers described in Table 1, and sprayed at air temperatures listed in the same Table. Spraying was usually avoided under windy conditions to avoid drift.

[4] = tested on: Hybrid Sweet Corn Seedlings (cv. Silver Queen); experiment: Lengths of stems and total plant length of seedlings sprayed Day 7; type: in vivo; settings: T = 1-triacontanol 0.1 mg/liter
[5] = tested on: Field Corn Seedlings (cv. Trojan TXS 94, Pioneer 3780, WF9 X Bear 38); experiment: Greenhouse trial: dry weight and water uptake of seedlings after foliar spraying; type: in vivo; settings: cv. Trojan TXS 94, no metal salt, 1-triacontanol 0.1 mg/liter
Protocol: as §2, §3, §4, §5

[6] = tested on: Soybean Seedlings (cv. Prize); experiment: Greenhouse trial: dry weight of seedlings; type: in vivo; settings: for Dry wt.: per four plants per plot
Protocol: as §2, §3, §4, §5

[7] = tested on: Winter Wheat Seedlings (cv. Augusta); experiment: Greenhouse trial: dry weight of seedlings; type: in vivo; settings: triacontanol 0.1 mg/l, pH 9.0
Protocol: as §2, §3, §4, §5

[8] = tested on: Watermelon Seedlings (cv. Dixie Queen); experiment: Greenhouse trial: dry weight of seedlings; type: in vivo; settings: 1-triacontanol 0.1 mg/liter, pH 9.8; for Dry wt.: per 4 plants
Protocol: as §2, §3, §4, §5

[9] = cv. Ponderosa Red Beefsteak, CaCl2 5 mM, no IAA
[10] = cv. Ponderosa Red Beefsteak, CaCl2 50 mM, IAA 0.01 mM
[11] = cv. Ponderosa Red Beefsteak, CaCl2 5 mM, no IAA (Formulation 12)
[12] = cv. Ponderosa Red Beefsteak, CaCl2 50 mM, IAA 10 μM (Formulation 16)
[13] = cv. Ponderosa Red Beefsteak, previous year
[14] = cv. Red Cherry, CaCl2 5 mM, no IAA (Formulation 12)
[15] = cv. Red Cherry, CaCl2 50 mM, IAA 10 μM (Formulation 16)
[16] = cv. Rutgers VF, CaCl2 5 mM, no IAA (Formulation 12)
[17] = cv. Rutgers VF, CaCl2 50 mM, IAA 10 μM (Formulation 16)
[18] = CaCl2 50.0 mM, IAA 10 μM (Formulation 14)
[19] = CaCl2 5 mM, 1-triacontanol 0.1 mg/liter
[20] = CaCl2 10 mM, 1-triacontanol 0.1 mg/liter
[21] = CaCl2 20 mM, 1-triacontanol 0.1 mg/liter
[22] = CaCl2 50 mM, NAA 1.5 μM (Formulation 7)

Structure (SMILES): CCCCCCCCCCCCCCCCCCCCCCCCCCCCCCO [1-Triacontanol, 1-triacontanol]
- Percent increases (size of seeds) [1, 9]: +25%
- Wt. of treated seed [1, 9]: 0.40 g
- Percent increases (size of seeds) [1, 10]: +6%
- Wt. of treated seed [1, 10]: 0.34 g
- Fresh wt. (marketable yield) [1, 11]: 15353 g
- Percent increases (marketable yield) [1, 11]: +38%
- Fresh wt. (marketable yield) [1, 12]: 22283 g
- Percent increases (marketable yield) [1, 12]: +45%
- Early yield over controls [1, 13]: 72%
- Late yield over controls [1, 13]: 67%
- Fresh wt. (marketable yield) [1, 14]: 5679 g
- Percent increases (marketable yield) [1, 14]: +26%
- Fresh wt. (marketable yield) [1, 15]: 6225 g
- Percent increases (marketable yield) [1, 15]: +38%
- Fresh wt. (marketable yield) [1, 16]: 14079 g
- Percent increases (marketable yield) [1, 16]: +7%
- Fresh wt. (marketable yield) [1, 17]: 20880 g
- Percent increases (marketable yield) [1, 17]: +59%
- Percent increases (dry weight) ([2]; CaCl2 0.0 mM, no IAA): -5%
- Dry wt. ([2]; CaCl2 0.0 mM, no IAA, control 0.83): 0.79 gm
- Percent increases (dry weight) ([2]; CaCl2 1.0 mM, no IAA): +1%
- Dry wt. ([2]; CaCl2 1.0 mM, no IAA): 0.84 gm
- Percent increases (dry weight) ([2]; CaCl2 3.0 mM, no IAA): -7%
- Dry wt. ([2]; CaCl2 3.0 mM, no IAA): 0.77 gm
- Percent increases (dry weight) ([2]; CaCl2 5.0 mM, no IAA): +7%
- Dry wt. ([2]; CaCl2 5.0 mM, no IAA): 0.89 gm
- Percent increases (dry weight) ([2]; CaCl2 10.0 mM, no IAA): +18%
- Dry wt. ([2]; CaCl2 10.0 mM, no IAA): 0.98 gm
- Percent increases (dry weight) ([2]; CaCl2 15.0 mM, no IAA): +33%
- Dry wt. ([2]; CaCl2 15.0 mM, no IAA): 1.10 gm
- Percent increases (dry weight) [2, 18]: +46%
- Dry wt. [2, 18]: 1.21 gm
- Increase (crop yield) ([3]; CaCl2 5 mM): +88%
- Fresh wt. (crop yield) ([3]; CaCl2 5 mM, control 9575 g): 17980 g
- Fresh wt. (crop yield) ([3]; CaCl2 50 mM): 11725 g
- Increase (crop yield) ([3]; CaCl2 50 mM): +22%
- Increase over controls (crop yield) ([3]; cv. Straight Eight, previous year, pH 8.7, CaCl2 4.5 mM): 101%
- Increase in length "a" [4]: 0%
- Increase in length "b" [4]: +15%
- Length "a" (stem to the first leaf) ([4]; control 11.5 cm): 11.5 cm
- Length "b" (total plant length) ([4]; control 25.0 cm): 28.8 cm
- Dry wt. increase ([5]; Formulation 4): -3%
- Dry wt. increase ([5]; Formulation 11): -8%
- Dry wt. ([6]; CaCl2 3 mM as printed, 1-triacontanol 0.1 mg/liter): 1.96 g
- Increase (dry weight) [6, 19]: +17%
- Dry wt. [6, 19]: 2.30 g
- Increase (dry weight) [6, 20]: +37%
- Dry wt. [6, 20]: 2.68 g
- Increase (dry weight) [6, 21]: +35%
- Dry wt. [6, 21]: 2.65 g
- Increase (dry weight) ([6]; line printed as "Control" but with an increase): +7%
- Increase (dry weight) ([7]; CaCl2 0 mM, no NAA): 0%
- Dry wt. ([7]; CaCl2 0 mM, no NAA, average sum of four plants per plot, control 0.513 g): 0.520 g
- Dry wt. ([7]; CaCl2 5 mM, no NAA): 0.502 g
- Increase (dry weight) ([7]; CaCl2 5 mM, no NAA): -2%
- Dry wt. ([7]; CaCl2 10 mM, no NAA): 0.682 g
- Increase (dry weight) ([7]; CaCl2 10 mM, no NAA): +33%
- Dry wt. ([7]; CaCl2 15 mM, no NAA): 0.616 g
- Increase (dry weight) ([7]; CaCl2 15 mM, no NAA): +20%
- Dry wt. ([7]; CaCl2 20 mM, no NAA): 0.682 g
- Increase (dry weight) ([7]; CaCl2 20 mM, no NAA): +33%
- Dry wt. ([7]; CaCl2 25 mM, no NAA): 0.708 g
- Increase (dry weight) ([7]; CaCl2 25 mM, no NAA): +38%
- Dry wt. [7, 22]: 0.872 g
- Increase (dry weight) [7, 22]: +70%
- Percent increases (dry weight) ([8]; CaCl2 5 mM, no IAA): +38%
- Dry wt. ([8]; CaCl2 5 mM, no IAA, sprayed Day 36, harvested Day 45, control 0.61 g): 0.84 gm
- Percent increases (dry weight) ([8]; CaCl2 10 mM, no IAA): +48%
- Dry wt. ([8]; CaCl2 10 mM, no IAA): 0.90 gm
- Percent increases (dry weight) ([8]; CaCl2 50 mM, IAA 10 μM): +65%
- Dry wt. ([8]; CaCl2 50 mM, IAA 10 μM): 1.01 gm
